Residues, ends and D or L forms follow the SMILES beside them.
Each compound was assayed on Swine aorta endothelial cells (assay: Measurement of activity inhibiting swine vascular endothelial cell migration). Conditions: test compound at 10 µmol/L; 6 hours pre-culture, cells scraped off with razor blade, then 24 hours culture; 0.1% bovine serum albumin-containing Dulbecco's modified Eagle medium; value ± SD.
Format: cell-based
From the text: Measurement of activity inhibiting swine vascular endothelial cell migration: Swine aorta endothelial cells (5th to 7th generations) were suspended in the 10% fetus calf serum-containing Dulbecco's modified Eagle medium and inoculated at a cell density of 32,000 cells/cm^2 in a 6-well plate, for culturing until the cells formed a single layer over the whole bottom of the culture dish. Subsequently, the culture broth was exchanged to the 0.1% bovine serum albumin-containing Dulbecco's modified Eagle medium containing a test compound at a concentration of 10 µmol/L, followed by culturing for 6 hours. Then, a part of the cells on the bottom of the culture dish was scraped off using a razor blade. Subsequently, the culture broth was exchanged to the 0.1% bovine serum albumin-containing Dulbecco's modified Eagle medium containing a test compound in a concentration of 10 µmol/L, followed by culturing for 24 hours. After immobilizing the cells, the number of the cells which had migrated on the bottom portion of the culture dish, where a part of the cells had been scraped off, was counted. The inhibition ratio of cell migration was calculated by the following equation. Inhibition ratio of cell migration (%) = (1 - the number of cells which had migrated in the presence of the test compound/the number of cells which had migrated in the absence of the test compound) × 100 [formula]

| Structure (SMILES) | Inhibition ratio of cell migration (%) ± SD [%] |
| --- | --- |
| CC[C@H](C)[C@H](NC(=O)[C@H](CCSC)NC(=O)[C@H](CCCNC(=N)N)NC(=O)[C@H](Cc1c[nH]cn1)NC(=O)[C@H](CCCNC(=N)N)NC(=O)[C@H](CCCCN)NC(=O)[C@H](CCCCN)NC(=O)[C@@H](N)CCSC)C(=O)N[C@@H](CCCCN)C(=O)N[C@@H](CCSC)C(=O)N[C@@H](CC(N)=O)C(=O)N1CCC[C@H]1C(=O)N[C@@H](C)C(=O)N[C@@H](CC(=O)O)C(=O)NCC(N)=O [Compound 8, H-Met-Lys-Lys-Arg-His-Arg-Met-Ile-Lys-Met-Asn-Pro-Ala-Asp-Gly-NH2] (H-MKKRHRMIKMNPADG-NH2) | 7.2±1.2 |
| CC[C@H](C)[C@H](NC(=O)[C@H](CO)NC(=O)[C@H](C)NC(=O)[C@@H]1CCCN1C(=O)[C@H](CO)NC(=O)[C@H](Cc1c[nH]c2ccccc12)NC(=O)[C@@H](NC(=O)[C@@H](NC(=O)[C@H](Cc1c[nH]c2ccccc12)NC(=O)[C@H](CCC(=O)O)NC(=O)[C@H](CO)NC(=O)[C@@H](N)CCSC)[C@@H](C)CC)[C@@H](C)O)C(=O)N[C@@H](CO)C(=O)N[C@@H](C)C(=O)NCC(N)=O [Compound 1, H-Met-Ser-Glu-Trp-Ile-Thr-Trp-Ser-Pro-Ala-Ser-Ile-Ser-Ala-Gly-NH2] (H-MSEWITWSPASISAG-NH2) | 24.5±4.9 |
| CC(C)C[C@H](NC(=O)[C@H](CO)NC(=O)[C@@H](N)CC(C)C)C(=O)N[C@@H](Cc1c[nH]c2ccccc12)C(=O)N[C@@H](CO)C(=O)N[C@@H](CCC(=O)O)C(=O)N[C@@H](Cc1c[nH]c2ccccc12)C(=O)N[C@@H](CO)C(=O)N[C@@H](CC(=O)O)C(=O)N[C@@H](C)C(=O)N[C@@H](CO)C(=O)N[C@H](C(=O)N[C@H](C(=O)N[C@@H](C)C(=O)NCC(N)=O)[C@@H](C)O)C(C)C [Compound 2, H-Leu-Ser-Leu-Trp-Ser-Glu-Trp-Ser-Asp-Ala-Ser-Val-Thr-Ala-Gly-NH2] (H-LSLWSEWSDASVTAG-NH2) | 41.5±2.1 |
| CC(C)C[C@H](N)C(=O)N[C@H](C(=O)N[C@@H](CCC(=O)O)C(=O)N[C@@H](Cc1c[nH]c2ccccc12)C(=O)N[C@@H](CO)C(=O)N[C@@H](CCC(N)=O)C(=O)N[C@@H](Cc1c[nH]c2ccccc12)C(=O)N[C@@H](CO)C(=O)N[C@@H](CCC(=O)O)C(=O)N[C@@H](C)C(=O)N[C@@H](CC(N)=O)C(=O)N[C@@H](CCCCN)C(=O)N[C@@H](CO)C(=O)N[C@@H](C)C(=O)NCC(N)=O)[C@@H](C)O [Compound 5, H-Leu-Thr-Glu-Trp-Ser-Gln-Trp-Ser-Glu-Ala-Asn-Lys-Ser-Ala-Gly-NH2] (H-LTEWSQWSEANKSAG-NH2) | 10.8±6.0 |
| CSCC[C@H](NC(=O)[C@H](CCCNC(=N)N)NC(=O)[C@H](CCCCN)NC(=O)CNC(=O)[C@H](CCCCN)NC(=O)[C@@H](N)CC(=O)O)C(=O)N[C@@H](CCCNC(=N)N)C(=O)N[C@@H](CCC(N)=O)C(=O)N[C@@H](CCCNC(=N)N)C(=O)N[C@@H](CCSC)C(=O)N[C@@H](CC(C)C)C(=O)N[C@@H](CCCCN)C(=O)N[C@@H](C)C(=O)N[C@@H](CCC(N)=O)C(=O)N[C@@H](CC(C)C)C(N)=O [Compound 7, H-Asp-Lys-Gly-Lys-Arg-Met-Arg-Gln-Arg-Met-Leu-Lys-Ala-Gln-Leu-NH2] (H-DKGKRMRQRMLKAQL-NH2) | 9.3±1.6 |
| CSCC[C@H](N)C(=O)N[C@H](C(=O)N[C@@H](CCC(=O)O)C(=O)N[C@@H](Cc1c[nH]c2ccccc12)C(=O)NCC(=O)N[C@@H](CCC(=O)O)C(=O)N[C@@H](Cc1c[nH]c2ccccc12)C(=O)N[C@@H](CC(=O)O)C(=O)N[C@@H](CCC(=O)O)C(=O)N[C@@H](C)C(=O)N[C@@H](CO)C(=O)N[C@@H](C)C(=O)N[C@H](C(=O)N[C@@H](C)C(=O)NCC(N)=O)[C@@H](C)O)[C@@H](C)O [Compound 4, H-Met-Thr-Glu-Trp-Gly-Glu-Trp-Asp-Glu-Ala-Ser-Ala-Thr-Ala-Gly-NH2] (H-MTEWGEWDEASATAG-NH2) | 7.4±13.2 |
| CC[C@H](C)[C@H](NC(=O)[C@H](CCCNC(=N)N)NC(=O)[C@H](C)NC(=O)[C@H](CCCCN)NC(=O)[C@H](CCCCN)NC(=O)[C@H](CCCNC(=N)N)NC(=O)[C@H](CCC(N)=O)NC(=O)[C@@H](NC(=O)[C@@H](NC(=O)[C@H](CCC(=O)O)NC(=O)[C@@H]1CCCN1C(=O)[C@H](C)NC(=O)[C@@H]1CCCN1)[C@@H](C)O)C(C)C)C(=O)N[C@@H](CCCNC(=N)N)C(=O)N[C@@H](CCCCN)C(N)=O [Compound 10, H-Pro-Ala-Pro-Glu-Thr-Val-Gln-Arg-Lys-Lys-Ala-Arg-Ile-Arg-Lys-NH2] (H-PAPETVQRKKARIRK-NH2) | 20.6±1.9 |
| CSCC[C@H](N)C(=O)N[C@@H](CCCNC(=N)N)C(=O)N1CCC[C@H]1C(=O)N[C@@H](Cc1c[nH]c2ccccc12)C(=O)N[C@H](C(=O)N[C@@H](C)C(=O)N[C@@H](Cc1c[nH]c2ccccc12)C(=O)N[C@@H](CO)C(=O)N[C@@H](CCC(=O)O)C(=O)N[C@@H](C)C(=O)N[C@H](C(=O)N[C@@H](CCCCN)C(=O)N[C@@H](CC(C)C)C(=O)N[C@@H](C)C(=O)NCC(N)=O)[C@@H](C)O)[C@@H](C)O [Compound 6, H-Met-Arg-Pro-Trp-Thr-Ala-Trp-Ser-Glu-Ala-Thr-Lys-Leu-Ala-Gly-NH2] (H-MRPWTAWSEATKLAG-NH2) | 5.7±8.0 |
| C[C@H](NC(=O)[C@H](C)NC(=O)[C@H](CO)NC(=O)[C@H](Cc1c[nH]c2ccccc12)NC(=O)[C@@H]1CCCN1C(=O)[C@H](CO)NC(=O)[C@H](Cc1c[nH]c2ccccc12)NC(=O)[C@H](CC(N)=O)NC(=O)[C@H](CO)NC(=O)[C@@H](N)Cc1ccc(O)cc1)C(=O)N[C@@H](CO)C(=O)N[C@@H](CO)C(=O)N[C@@H](CO)C(=O)N[C@H](C(=O)N[C@@H](C)C(=O)N[C@@H](CC(=O)O)C(N)=O)[C@@H](C)O [Compound 3, H-Tyr-Ser-Asn-Trp-Ser-Pro-Trp-Ser-Ala-Ala-Ser-Ser-Ser-Thr-Ala-Asp-NH2] (H-YSNWSPWSAASSSTAD-NH2) | 12.3±10.0 |
| CC[C@H](C)[C@H](NC(=O)[C@H](CCSC)NC(=O)[C@H](CCCNC(=N)N)NC(=O)[C@@H](NC(=O)[C@H](CCCNC(=N)N)NC(=O)[C@@H](NC(=O)[C@@H](NC(=O)[C@H](Cc1c[nH]cn1)NC(=O)CNC(=O)[C@H](CCCCN)NC(=O)CN)C(C)C)[C@@H](C)CC)[C@@H](C)O)C(=O)N[C@@H](CCC(N)=O)C(=O)N[C@@H](CCSC)C(=O)N[C@@H](CCC(=O)O)C(N)=O [Compound 9, H-Gly-Lys-Gly-His-Val-Ile-Arg-Thr-Arg-Met-Ile-Gln-Met-Glu-NH2] (H-GKGHVIRTRMIQME-NH2) | 3.9±1.6 |
| CSCC[C@H](NC(=O)[C@H](Cc1ccc(O)cc1)NC(=O)[C@@H](N)CCCNC(=N)N)C(=O)N[C@H](C(=O)N[C@H](C(=O)N[C@@H](CCCCN)C(=O)N[C@@H](CCCCN)C(=O)N[C@@H](CCCNC(=N)N)C(=O)N[C@@H](Cc1ccccc1)C(=O)N[C@@H](CCCCN)C(=O)N[C@@H](CO)C(=O)N[C@@H](CO)C(=O)N[C@@H](CCC(N)=O)C(=O)N[C@@H](Cc1ccccc1)C(=O)N[C@H](C(N)=O)[C@@H](C)O)C(C)C)[C@@H](C)O [Compound 11, H-Arg-Tyr-Met-Thr-Val-Lys-Lys-Arg-Phe-Lys-Ser-Ser-Gln-Phe-Thr-NH2] (H-RYMTVKKRFKSSQFT-NH2) | 12.2±10.7 |

Reference: patent EP1152011A1, “PEPTIDES INHIBITING VASCULAR ENDOTHELIAL CELL MIGRATION” (KYOWA HAKKO KOGYO CO., LTD., priority 1999, dated 2000)
